Experimental data from PubChem BioAssay AID248 (DTP/NCI, 2004).
Inconclusive results and toxic doses are left out. Rule as the data show it: active = T/C of 150% or more; inactive = T/C below 125%.

System: L1210 leukemia ip in BDF1 mice, survival T/C
Experiment: NCI In Vivo Anticancer Drug Screen. Data for tumor model L1210 Leukemia (intraperitoneal) in B6D2F1 (BDF1) mice
Settings: endpoint: mean survival time, higher = longer survival
Outline: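 Antitumor effect is assessed in tumor-bearing animals. Survival in the compound arm is compared with a vehicle-dosed control arm and expressed as their quotient.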

[1] = dose: 100.0 mg/kg/injection, schedule: Q01DX009 (ip), vehicle: saline with Tween-80
[2] = dose: 200.0 mg/kg/injection, schedule: Q01DX009 (ip), vehicle: saline with Tween-80
[3] = dose: 100.0 mg/kg/injection, schedule: Q04DX003 (ip), vehicle: saline
[4] = dose: 200.0 mg/kg/injection, schedule: Q04DX003 (ip), vehicle: saline

Measured: T/C

Oc1ccc(N=Cc2ccc(C=Nc3ccc(O)cc3)cc2)cc1
inactive: [1] 106 % of control | dose: 100.0 mg/kg/injection, schedule: Q04DX003 (ip), vehicle: saline with Tween-80 112 % of control | [2] 100 % of control | dose: 200.0 mg/kg/injection, schedule: Q04DX003 (ip), vehicle: saline with Tween-80 100 % of control | dose: 400.0 mg/kg/injection, schedule: Q01DX009 (ip), vehicle: saline with Tween-80 105 % of control | dose: 400.0 mg/kg/injection, schedule: Q04DX003 (ip), vehicle: saline with Tween-80 100 % of control

CCC[CH2][Sn]([CH2]CCC)([O]C)[O]C
inactive: dose: 4.0 mg/kg/injection, schedule: Q01DX009 (ip), vehicle: Klucel (hydroxypropylcellulose) (HPC) 98 % of control | dose: 4.0 mg/kg/injection, schedule: Q04DX003 (ip), vehicle: Klucel (hydroxypropylcellulose) (HPC) 96 % of control | dose: 8.0 mg/kg/injection, schedule: Q01DX009 (ip), vehicle: Klucel (hydroxypropylcellulose) (HPC) 98 % of control | dose: 8.0 mg/kg/injection, schedule: Q04DX003 (ip), vehicle: Klucel (hydroxypropylcellulose) (HPC) 101 % of control | dose: 16.0 mg/kg/injection, schedule: Q01DX009 (ip), vehicle: Klucel (hydroxypropylcellulose) (HPC) 104 % of control | dose: 16.0 mg/kg/injection, schedule: Q04DX003 (ip), vehicle: Klucel (hydroxypropylcellulose) (HPC) 99 % of control

COc1ccc(OC)c(/C=C/C(=O)c2ccc(Cl)cc2)c1
inactive: dose: 100.0 mg/kg/injection, schedule: Q04DX003 (ip), vehicle: Klucel (hydroxypropylcellulose) (HPC) 94 % of control | dose: 200.0 mg/kg/injection, schedule: Q04DX003 (ip), vehicle: Klucel (hydroxypropylcellulose) (HPC) 94 % of control | dose: 400.0 mg/kg/injection, schedule: Q04DX003 (ip), vehicle: Klucel (hydroxypropylcellulose) (HPC) 97 % of control

O=C(NC(c1ccccc1)C(NC(=O)c1ccccc1)c1ccccc1)c1ccccc1 (centres undefined)
inactive: dose: 100.0 mg/kg/injection, schedule: Q01DX001 (ip), vehicle: Klucel (hydroxypropylcellulose) (HPC) 99 % of control | dose: 200.0 mg/kg/injection, schedule: Q01DX001 (ip), vehicle: Klucel (hydroxypropylcellulose) (HPC) 99 % of control | dose: 400.0 mg/kg/injection, schedule: Q01DX001 (ip), vehicle: Klucel (hydroxypropylcellulose) (HPC) 97 % of control

Nc1ccn(CC(=O)N2CCOCC2)c(=O)n1
inactive: dose: 25.0 mg/kg/injection, schedule: Q01DX009 (ip), vehicle: water 93 % of control | dose: 50.0 mg/kg/injection, schedule: Q01DX009 (ip), vehicle: water 87 % of control | dose: 100.0 mg/kg/injection, schedule: Q01DX009 (ip), vehicle: water 87 % of control | dose: 200.0 mg/kg/injection, schedule: Q01DX009 (ip), vehicle: water 93 % of control | dose: 400.0 mg/kg/injection, schedule: Q01DX009 (ip), vehicle: water 88 % of control

CCN(CCO)CC1OC(OC)C2OC(C)(C)OC12 (centres undefined)
inactive: dose: 100.0 mg/kg/injection, schedule: Q01DX009 (ip), vehicle: saline 97 % of control | [3] 98 % of control | dose: 200.0 mg/kg/injection, schedule: Q01DX009 (ip), vehicle: saline 100 % of control | [4] 95 % of control | dose: 400.0 mg/kg/injection, schedule: Q01DX009 (ip), vehicle: saline 94 % of control | dose: 400.0 mg/kg/injection, schedule: Q04DX003 (ip), vehicle: saline 96 % of control

CC1CCNCC1
inactive: dose: 100.0 mg/kg/injection, schedule: Q04DX002 (ip), vehicle: saline 105 % of control | dose: 200.0 mg/kg/injection, schedule: Q04DX002 (ip), vehicle: saline 102 % of control | dose: 400.0 mg/kg/injection, schedule: Q04DX002 (ip), vehicle: saline 94 % of control

CNc1c(C)n(C)n(-c2ccccc2)c1=O.[Cl][Pd]([Cl])([Cl])[Cl]
inactive: dose: 50.0 mg/kg/injection, schedule: Q04DX003 (ip), vehicle: saline 106 % of control | [3] 111 % of control | [4] 100 % of control

CC1CSCC(C)O1 (centres undefined)
inactive: dose: 50.0 mg/kg/injection, schedule: Q01DX009 (ip), vehicle: saline with Tween-80 95 % of control | [2] 95 % of control
active: [1] 284 % of control

Cc1nc2ccccc2n1C
inactive: [1] 107 % of control
